Counter-ions that a name gives are not always drawn.

The target of the assay is S1P1 receptor (Homo sapiens, UniProt P21453). Briefly: 35S-GTPγS binding, membranes from CHO cells expressing S1P1. Particulars: CHO cell membranes expressing S1P1. The assay is classed as biochemical. As for the experimental part: Receptor binding assay: Membranes were prepared from CHO cells expressing S1P1 or S1P3 for use in ligand and 35S-GTPTS binding studies. Cells were suspended in 50 mM TRIS, pH 7.4, 2 mM EDTA, 250 mM Sucrose (buffer A) and 1× Complete protease inhibitor cocktail (Roche), and disrupted at 4° C. by nitrogen decompression using a cell disruption bomb (Parr Instrument). Following centrifugation at 1000 RPM for 10 min at 4° C., the supernatant was suspended in buffer A and centrifuged again at 19000 RPM for 60 min at 4° C. The pellet was then suspended in 10 mM HEPES, pH 7.4, 1 mM EDTA, 250 mM Sucrose (Buffer B), and 1× Complete EDTA-free protease inhibitor cocktail and homogenized using a potter. Membranes were flash frozen in liquid nitrogen and stored at −80° C. [33P]sphingosine 1-phosphate (3000 Ci/mmol; American Radiolabeled Chemicals, Inc.) was added to test compounds in DMSO. Membranes and WGA SPA beads (GE Healthcare) were added to give a final volume of 100 μl in 96-well plates with assay concentrations of […] [33P]sphingosine 1-phosphate (respectively for S1P1 or S1P3), 50 mM HEPES, pH 7.5, 5 mM MgCl2, 100 mM NaCl, 0.4% fatty acid-free BSA, 1-5 μg/well of proteins and 100 μg/well of WGA SPA beads. Binding was performed for 60 min at room temperature on a shaker and bound radioactivity was measured on a PerkinElmer 1450 MicroBeta counter. Specific binding was calculated by subtracting remaining radioactivity in the presence of 1000-fold excess of unlabeled S1P. Binding data were analyzed using the GraphPad Prism program.
Measurements of ^35S-GTPγS Binding: Membranes (1 to 10 μg protein) prepared as described above, were incubated in 96-well Scintiplates (PerkinElmer) with test compounds diluted in DMSO, in 180 μl of 20 mM HEPES, pH 7.4, 10 mM MgCl2, 2 μg/well Saponin, 0.2% fatty acid free BSA (Assay buffer), 140 mM NaCl and 1.7 μM GDP. The assay was initiated with the addition of 20 μl of 1.5 nM [35S]-GTPγS (1100 Ci/mmol; GE Healthcare) in assay buffer. After 60 min incubation at 30° C. on a shaker, plates were centrifuged for 10 min at 2000 RPM. Supernatant was discarded and membrane bound radioactivity was measured on a PerkinElmer 1450 MicroBeta counter. Triplicate samples were averaged and expressed as response relative to S1P activation in absence of compound (n=2).

Chain of S1P1 receptor (P21453 whole entry): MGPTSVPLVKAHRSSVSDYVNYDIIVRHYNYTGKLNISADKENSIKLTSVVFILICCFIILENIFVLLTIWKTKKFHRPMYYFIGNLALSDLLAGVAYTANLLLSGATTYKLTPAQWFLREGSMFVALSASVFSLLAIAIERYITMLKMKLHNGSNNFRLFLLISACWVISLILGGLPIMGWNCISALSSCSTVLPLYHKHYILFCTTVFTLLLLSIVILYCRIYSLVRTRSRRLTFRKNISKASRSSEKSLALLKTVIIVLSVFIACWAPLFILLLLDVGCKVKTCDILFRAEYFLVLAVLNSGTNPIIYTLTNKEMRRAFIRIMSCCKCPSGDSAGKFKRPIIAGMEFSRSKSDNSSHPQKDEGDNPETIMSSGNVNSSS

In turn, `Fc1ccccc1-n1nnc(-c2nc(-c3ccc(Cn4ccnc4)cc3)no2)c1-c1ccncc1` [Example 170, 4-(1-(2-fluorophenyl)-4-{3-[4-(1H-imidazol-1-ylmethyl)phenyl]-1,2,4-oxadiazol-5-yl}-1H-1,2,3-triazol-5-yl)pyridine] gave a concentration giving a half-maximal response (EC50) of 4 nM.
As for `Fc1ccccc1-n1nnc(-c2nc(-c3ccoc3)no2)c1-c1ccncc1` [Example 88, 4-{1-(2-fluorophenyl)-4-[3-(3-furyl)-1,2,4-oxadiazol-5-yl]-1H-1,2,3-triazol-5-yl}pyridine], the 50% effective concentration (EC50) was determined as 945 nM.
With `CC(C)NCc1ccc(-c2noc(-c3nnn(-c4ccccc4F)c3-c3ccncc3)n2)cc1` [Example 165, N-(4-{5-[1-(2-fluorophenyl)-5-pyridin-4-yl-1H-1,2,3-triazol-4-yl]-1,2,4-oxadiazol-3-yl}benzyl)propan-2-amine], the EC50 stood at 17 nM. Compared with the last molecule, the EC50 is about 56-fold lower.
Molecule `Fc1ccccc1-n1nnc(-c2nc(-c3cccc(C(F)(F)F)c3)no2)c1CN1CCOCC1` [Example 151, 4-[(1-(2-fluorophenyl)-4-{3-[3-(trifluoromethyl)phenyl]-1,2,4-oxadiazol-5-yl}-1H-1,2,3-triazol-5-yl)methyl]morpholine] had a half-maximal effective concentration (EC50) of 340 nM.
Regarding `OCC1CCN(Cc2ccc(-c3noc(-c4nnn(-c5ccccc5F)c4-c4ccncc4)n3)cc2)CC1` [Example 139, [1-(4-{5-[1(2-fluorophenyl)-5-pyridin-4-yl-1H-1,2,3-triazol-4-yl]-1,2,4-oxadiazol-3-yl}benzyl)piperidin-4-yl]methanol], the EC50 was determined as 118 nM.
The molecule `CC(=O)N1CCC(c2noc(-c3nnn(-c4ccccc4F)c3-c3ccncc3)n2)CC1` [Example 55, 4-[4-[3-(1-acetylpiperidin-4-yl)-1,2,4-oxadiazol-5-yl]-1-(2-fluorophenyl)-1H-1,2,3-triazol-5-yl]pyridine] returned a concentration for a half-maximal effect (EC50) of 1420 nM.
With `COCc1c(-c2nc(-c3cccc(S(N)(=O)=O)c3)no2)nnn1-c1ccccc1F` [Example 93, 3-{5-[1-(2-fluorophenyl)-5-(methoxymethyl)-1H-1,2,3-triazol-4-yl]-1,2,4-oxadiazol-3-yl}benzenesulfonamide] the figure was 754 nM; with `Fc1ccccc1-n1nnc(-c2nc(-c3ccco3)no2)c1-c1ccncc1` [Example 89, 4-{1-(2-fluorophenyl)-4-[3-(2-furyl)-1,2,4-oxadiazol-5-yl]-1H-1,2,3-triazol-5-yl}pyridine], 1030 nM.
With `CN(C)Cc1ccc(-c2noc(-c3nnn(-c4ccccc4F)c3-c3ccncc3)n2)cc1` [Example 131, 1-(4-{5-[1-(2-fluorophenyl)-5-pyridin-4-yl-1H-1,2,3-triazol-4-yl]-1,2,4-oxadiazol-3-yl}phenyl)-N,N-dimethylmethanamine] the figure was 11 nM; with `Fc1ccc(Br)c(-c2noc(-c3nnn(-c4ccccc4F)c3-c3ccncc3)n2)c1` [Example 149, 4-[4-[3-(2-bromo-5-fluorophenyl)-1,2,4-oxadiazol-5-yl]-1-(2-fluorophenyl)-1H-1,2,3-triazol-5-yl]pyridine], 39 nM.
In turn, `Fc1ccccc1-n1nnc(-c2nc(-c3cccc(CN4CCOCC4)c3)no2)c1-c1ccncc1` [Example 60, 4-(3-{5-[1-(2-fluorophenyl)-5-pyridin-4-yl-1H-1,2,3-triazol-4-yl]-1,2,4-oxadiazol-3-yl}benzyl)morpholine] showed a concentration for a half-maximal effect (EC50) of 620 nM.
With `Fc1ccccc1-c1noc(-c2nnn(-c3ccccc3F)c2C2CCCO2)n1` (stereo not shown) [Example 53, 3-(2-fluorophenyl)-5-[1-(2-fluorophenyl)-5-(tetrahydrofuran-2-yl)-1H-1,2,3-triazol-4-yl]-1,2,4-oxadiazole] the figure was 211 nM; with `O=C(O)c1ccc(-c2noc(-c3nnn(-c4ccccc4F)c3-c3ccccc3)n2)cc1F` [Example 23, 2-Fluoro-4-{5-[1-(2-fluorophenyl)-5-phenyl-1H-1,2,3-triazole-4-yl]-1,2,4-oxadiazole-3-yl}benzoic acid], 646 nM.
`Fc1ccccc1-n1nnc(-c2nc(-c3ccncc3)no2)c1-c1ccccn1` [Example 66, 2-[1-(2-fluorophenyl)-4-(3-pyridin-4-yl-1,2,4-oxadiazol-5-yl)-1H-1,2,3-triazol-5-yl]pyridine]: the EC50 was 26 nM. Compared with the last molecule, the EC50 is about 25-fold lower.
With `Fc1ccccc1-n1nnc(-c2nc(-c3ccc(Cn4cncn4)cc3)no2)c1-c1ccncc1` [Example 172, 4-(1-(2-fluorophenyl)-4-{3-[4-(1H-1,2,4-triazol-1-ylmethyl)phenyl]-1,2,4-oxadiazol-5-yl}-1H-1,2,3-triazol-5-yl)pyridine] the figure was 5 nM; with `COc1cc(CCC(=O)O)ccc1-c1noc(-c2nnn(-c3ccccc3F)c2-c2ccccc2)n1` [Example 29, 3-(4-{5-[1-(2-Fluorophenyl)-5-phenyl-1H-1,2,3-triazole-4-yl]-1,2,4-oxadiazole-3-yl}-3-methoxyphenyl)propanoic acid], 1270 nM; with `Oc1ccc(-c2noc(-c3nnn(-c4ccccc4F)c3-c3ccncc3)n2)cc1` [Example 64, 4-{5-[1-(2-fluorophenyl)-5-pyridin-4-yl-1H-1,2,3-triazol-4-yl]-1,2,4-oxadiazol-3-yl}phenol], 8 nM.
Regarding `COCc1c(-c2nc(-c3ccc(Cn4cccn4)cc3)no2)nnn1-c1ccccc1F` [Example 173, 5-[1-(2-fluorophenyl)-5-(methoxymethyl)-1H-1,2,3-triazol-4-yl]-3-[4-(1H-pyrazol-1-ylmethyl)phenyl]-1,2,4-oxadiazole], the EC50 was found to be 240 nM.
In turn, `Fc1ccc(F)c(-c2noc(-c3nnn(-c4ccccc4F)c3CNCC3CC3)n2)c1` [Example 112, 1-cyclopropyl-N-{[4-[3-(2,5-difluorophenyl)-1,2,4-oxadiazol-5-yl]-1-(2-fluorophenyl)-1H-1,2,3-triazol-5-yl]methyl}methanamine] gave a half-maximal effective concentration (EC50) of 806 nM. This EC50 lies about 3.4-fold higher than the previous one.
With `NCc1cccc(-c2noc(-c3nnn(-c4ccccc4F)c3-c3ccncc3)n2)c1` [Example 125, 1-(3-{5-[1-(2-fluorophenyl)-5-pyridin-4-yl-1H-1,2,3-triazol-4-yl]-1,2,4-oxadiazol-3-yl}phenyl)methanamine hydrochloride] the figure was 230 nM; with `CN(C)Cc1c(-c2nc(-c3cc(F)ccc3F)no2)nnn1-c1ccccc1F` [Example 91, 1-[4-[3-(2,5-difluorophenyl)-1,2,4-oxadiazol-5-yl]-1-(2-fluorophenyl)-1H-1,2,3-triazol-5-yl]-N,N-dimethylmethanamine], 443 nM.
With `COc1ccccc1-c1noc(-c2nnn(-c3ccccc3F)c2-c2ccccn2)n1` [Example 67, 2-{1-(2-fluorophenyl)-4-[3-(2-methoxyphenyl)-1,2,4-oxadiazol-5-yl]-1H-1,2,3-triazol-5-yl}pyridine] the figure was 873 nM.
With `Fc1ccccc1-n1nnc(-c2nc(-c3cccc(Br)c3)no2)c1-c1ccncc1` [Example 100, 4-[4-[3-(3-bromophenyl)-1,2,4-oxadiazol-5-yl]-1-(2-fluorophenyl)-1H-1,2,3-triazol-5-yl]pyridine] the figure was 18 nM; with `Fc1ccccc1-n1nnc(-c2nc(-c3cccnc3)no2)c1C1CCCC1` [Example 79, 3-{5-[5-cyclopentyl-1-(2-fluorophenyl)-1H-1,2,3-triazol-4-yl]-1,2,4-oxadiazol-3-yl}pyridine], 230 nM.
`O=C1Cc2cc(-c3noc(-c4nnn(-c5ccccc5F)c4-c4ccncc4)n3)ccc2N1` [Example 106, 5-{5-[1-(2-fluorophenyl)-5-pyridin-4-yl-1H-1,2,3-triazol-4-yl]-1,2,4-oxadiazol-3-yl}-1,3-dihydro-2H-indol-2-one]: the EC50 was determined as 18 nM.
`CC(=O)N1CCc2cc(-c3noc(-c4nnn(-c5ccccc5F)c4-c4ccncc4)n3)ccc21` [Example 153, 1-acetyl-5-{5-[1-(2-fluorophenyl)-5-pyridin-4-yl-1H-1,2,3-triazol-4-yl]-1,2,4-oxadiazol-3-yl}indoline] displayed an EC50 of 90 nM.
With `OC1CCN(Cc2ccc(-c3noc(-c4nnn(-c5ccccc5F)c4-c4ccncc4)n3)cc2)CC1` [Example 141, 1-(4-{5-[1-(2-fluorophenyl)-5-pyridin-4-yl-1H-1,2,3-triazol-4-yl]-1,2,4-oxadiazol-3-yl}benzyl)piperidin-4-ol] the figure was 74 nM.
`CC(=O)Nc1ccc(-c2noc(-c3nnn(-c4ccccc4F)c3-c3ccncc3)n2)cn1` [Example 145, N-(5-{5-[1-(2-fluorophenyl)-5-pyridin-4-yl-1H-1,2,3-triazol-4-yl]-1,2,4-oxadiazol-3-yl}pyridin-2-yl)acetamide] had an EC50 of 230 nM.

What is called EC50 is the concentration at which the effect is half-maximal. A lower EC50 goes with greater potency.

The record behind these values is patent US8202856B2 (Merck Serono SA, priority 2007, dated 2012).
